“And” between values parts separate entries of the source, which are not always exact repeats. Identical values can stand only once.
How the values were obtained:
Assay type in all cases: cell-based, horse
[1] = test system: equine sarcoid [ES] cells sRGO2; assay: SRB assay after 96 h; settings: sRGO2, 96 h of drug exposure
Description: (§1) Approximately 7.5 × 10^5 cells (MelDuWi) and 1.0 × 10^6 cells (PriFri2 and sRGO2) were seeded in 25 cm^2 cell culture flasks. […] Following 24 and 48 h of incubation, the cells were harvested by mild trypsinization and washed twice with phosphate-buffered saline (PBS) buffer (containing Mg^2+ and Ca^2+). Cells (1.0 × 10^6) were fixed with ethanol (70%, -20°C, for 24 h). After discarding the ethanol, the cells were washed in 1 mL PBS buffer (containing Mg^2+ and Ca^2+) and were centrifuged. The cell pellet was resuspended in 1 mL of staining PBS buffer (containing Mg^2+ and Ca^2+, 10 μg/mL RNASe [Thermofisher] and 15 μg/mL propidium iodide [Sigma-Aldrich, Munich, Germany]) and was incubated for 30 min at room temperature. Analyses were performed using the Attune® FACS machine (Life Technologies, Darmstadt, Germany) collecting data from the BL-2A channel. Doublet cells were excluded from the measurements by plotting BL-2A against BL-2H. A total of 20,000 events were collected for each cell cycle distribution. Each sample was measured in duplicate.
(§2) S1 Appendix. IC50 values measured by SRB Assay after 96 h. […] Measurements were carried out at least as thrice determination.

[2] = test system: equine malignant melanoma [EMM] cells MelDuWi; assay: SRB assay after 96 h; settings: 96 h of drug exposure
Description: as §1, §2

[3] = test system: equine dermal fibroblasts PriFi2; assay: SRB assay after 96 h; settings: PriFri2, 96 h of drug exposure
Description: as §1, §2

ES cells sRGO2 = assay: AnnexinV-FITC/propidium iodide staining, flow cytometry; settings: double IC50 concentration
Description: (§3) Approximately 7.5 × 10^5 cells (MelDuWi) and 1.0 × 10^6 cells (PriFri2 and sRGO2) were seeded in 25 cm^2 cell culture flasks. […] Following 24 and 48 h of incubation, cells were harvested by mild trypsinization and washed twice with PBS buffer (containing Mg^2+ and Ca^2+). Cells (1.0 × 10^6) were resuspended in AnnexinV binding buffer (BioLegend®, San Diego, US) to a concentration of 1.0 ‧ 10^6 cells/mL. Approximately 100,000 cells were stained with propidium iodide solution ([…], 1 mg/mL) and FITC AnnexinV solution ([…], BioLegend®) for 15 min in the dark at room temperature. After the addition of Annexin V binding buffer ([…]), the suspension was analyzed using the Attune® FACS machine (Life Technologies). After gating for living cells, the data from detectors BL-1A and BL-3A were collected. A total of 20,000 events were collected from each sample and technical duplicates were measured.

EMM cells MelDuWi = assay: as above; settings: double IC50 concentration
Description: as §3

[4] = test system: equine dermal fibroblasts PriFri2; assay: as above
Description: as §3

[5] = test system: primary equine dermal fibroblasts PriFi2; assay: MTS cytotoxicity assay; settings: for IC50: mean (95% CI)
Description: (§4) All cells used for the experiments originate from different horses. Primary EMM cells (MelDuWi) and primary equine dermal fibroblasts (PriFi1, PriFi2) belong to the cell culture stock of the Clinic for Horses, University of Veterinary Medicine Hannover, Foundation, Hannover, Germany.
(§5) The cytotoxicity of the compounds was assessed by the CellTiter 96® AQueous One Solution Cell Proliferation Assay (MTS) (Promega GmbH, Mannheim, Germany) as reported. In brief, in order to reach cell confluence within 48 h, cells were seeded into 96-well plates in adequate densities (MelDuWi 30,000 cells/well; PriFi1, PriFi2, eRGO1 20,000 cells/well; sRGO1and sRGO2 15,000 cells/well). […] The formazan dye generated by the metabolic active cells was quantified photometrically. Cytotoxicity assays were performed in six to nine biological replicates with two technical replicates for each combination of cell type, incubation time and compound concentration.
(§6) Technical duplicates with a coefficient of variation of more than 20% were excluded from the cell assay analysis. […] Additional statistical data analysis was conducted with R 3.5.1.. A generalized additive model was fitted for each test (MTS and CVS) and cell type comparison (primary EMM cells and fibroblasts, and primary ES cells and fibroblasts) using the ‘mgcv’ package. Compound concentrations and the duration of incubation were modeled as tensor product smooth interacting with compound and cell line. Cell passage was added as a random effect. An appropriate distribution was selected by the visual inspection of residuals. The p-values were obtained by performing a Wald test for each parameter. Statistical significance was set at 0.05.

primary ES cells sRGO2 = assay: MTS cytotoxicity assay; settings: for IC50: mean (95% CI)
Description: as §4, §5, §6

[6] = test system: primary EMM cells MelDuWi; assay: MTS cytotoxicity assay; settings: for IC50: mean (95% CI)
Description: as §4, §5, §6

primary ES cells sRGO1 = assay: MTS cytotoxicity assay; settings: for IC50: mean (95% CI)
Description: as §4, §5, §6

[7] = test system: primary equine dermal fibroblasts PriFi1; assay: MTS cytotoxicity assay; settings: for IC50: mean (95% CI)
Description: as §4, §5, §6

primary EMM cells eRGO1 = assay: MTS cytotoxicity assay; settings: for IC50: mean (95% CI)
Description: as §4, §5, §6

[8] = PriFri2, 24 h, double IC50 concentration
[9] = PriFri2, 48 h, double IC50 concentration
[10] = equine dermal fibroblasts, 24 h, versus control

C=C(C)[C@@H]1CC[C@]2(C(=O)OCC(N)(CO)CO)CC[C@]3(C)[C@H](CC[C@@H]4[C@@]5(C)CC[C@H](OC(C)=O)C(C)(C)[C@@H]5CC[C@]43C)[C@@H]12 [NVX-207, 3-acetyl-betulinic acid-2-amino-3-hydroxy-2-hydroxymethyl-propanoate]
IC50 [1]: 3.1 µM | IC50 [2]: 3.7 µM | IC50 [3]: 3.8 µM | AnnexinV staining: Living cells (ES cells sRGO2; sRGO2, 24 h): 76,6% | AnnexinV staining: early apop (ES cells sRGO2; sRGO2, 24 h): 3,7% | AnnexinV staining: late apop (ES cells sRGO2; sRGO2, 24 h): 19,1% | AnnexinV staining: necrotic (ES cells sRGO2; sRGO2, 24 h): 0,5% | AnnexinV staining: Living cells (ES cells sRGO2; sRGO2, 48 h): 38,5% | AnnexinV staining: apoptotic cells (early and late) (ES cells sRGO2; sRGO2, 48 h): about 60% | AnnexinV staining: early apop (ES cells sRGO2; sRGO2, 48 h): 12,5% | AnnexinV staining: late apop (ES cells sRGO2; sRGO2, 48 h): 47,9% | AnnexinV staining: Living cells (EMM cells MelDuWi; 24 h): 48,9% | AnnexinV staining: early apop (EMM cells MelDuWi; 24 h): 20,0% | AnnexinV staining: late apop (EMM cells MelDuWi; 24 h): 30,8% | AnnexinV staining: necrotic (EMM cells MelDuWi; 24 h): 0,3% | AnnexinV staining: Living cells (EMM cells MelDuWi; 48 h): 29,8% | AnnexinV staining: early apop (EMM cells MelDuWi; 48 h): 24,3% | AnnexinV staining: late apop (EMM cells MelDuWi; 48 h): 45% and 44.8% | AnnexinV staining: apoptotic cells ([4]; PriFi2, 48 h, double IC50 concentration): about 85% | AnnexinV staining: Living cells [4, 8]: 50,0% | AnnexinV staining: early apop [4, 8]: 10,2% | AnnexinV staining: late apop [4, 8]: 37,6% | AnnexinV staining: necrotic [4, 8]: 2,2% | AnnexinV staining: Living cells [4, 9]: 12,3% | AnnexinV staining: early apop [4, 9]: 17,9% | AnnexinV staining: late apop [4, 9]: 67,1% | IC50 ([5]; PriFi2, 5 h): 20 µM | IC50 ([5]; PriFi2, 24 h): 7 µM | IC50 ([5]; PriFi2, 96 h): 4 µM | times more cytotoxic than BBS ([5]; PriFi2, after 48 h, MTS): ~9 times | IC50 (primary ES cells sRGO2; sRGO2, 5 h): 8 µM | IC50 (primary ES cells sRGO2; sRGO2, 24 h): 3 µM | IC50 (primary ES cells sRGO2; sRGO2, 48 h): 1 µM | times more cytotoxic than BBS (primary ES cells sRGO2; sRGO2, after 48 h, MTS): about 25 times | IC50 ([6]; 24 h): 18 µM | IC50 ([6]; 48 h): 15 µM | IC50 ([6]; 96 h): 8 µM | times more cytotoxic than BBS ([6]; after 48 h, MTS): ~3 times | IC50 (primary ES cells sRGO1; sRGO1, 5 h): 9 µM | IC50 (primary ES cells sRGO1; sRGO1, 24 h): 4 µM | IC50 (primary ES cells sRGO1; sRGO1, 48 h): 2 µM | times more cytotoxic than BBS (primary ES cells sRGO1; sRGO1, after 48 h, MTS): about 11 times | IC50 ([7]; PriFi1, 5 h): 11 µM | IC50 ([7]; PriFi1, 24 h): 4 µM | IC50 ([7]; PriFi1, 48 h): 1 µM | IC50 ([7]; PriFi1, 96 h): < 1 µM | times more cytotoxic than BBS ([7]; PriFi1, after 48 h, MTS): ~34 times | IC50 (primary EMM cells eRGO1; eRGO1, 5 h): 9 µM | IC50 (primary EMM cells eRGO1; eRGO1, 24 h): 7 µM | IC50 (primary EMM cells eRGO1; eRGO1, 48 h): 4 µM | IC50 (primary EMM cells eRGO1; eRGO1, 96 h): < 1 µM | times more cytotoxic than BBS (primary EMM cells eRGO1; eRGO1, after 48 h, MTS): ~8 times

C=C(C)[C@@H]1CC[C@]2(COS(N)(=O)=O)CC[C@]3(C)[C@H](CC[C@@H]4[C@@]5(C)CC[C@H](OS(N)(=O)=O)C(C)(C)[C@@H]5CC[C@]43C)[C@@H]12 [BBS, (3β)-Lup-20(29)-ene-3,28-diol, 3,28-disulfamate]
IC50 [1]: 24.3 µM | IC50 [2]: 14.9 µM | IC50 [3]: 19.6 µM | AnnexinV staining: Living cells (ES cells sRGO2; sRGO2, 24 h): 41,1% | AnnexinV staining: early apop (ES cells sRGO2; sRGO2, 24 h): 19,1% | AnnexinV staining: late apop (ES cells sRGO2; sRGO2, 24 h): 38,5% | AnnexinV staining: necrotic (ES cells sRGO2; sRGO2, 24 h): 1,3% | AnnexinV staining: Living cells (ES cells sRGO2; sRGO2, 48 h): 8,7% | AnnexinV staining: apoptotic cells (early and late) (ES cells sRGO2; sRGO2, 48 h): approximately 90% | AnnexinV staining: early apop (ES cells sRGO2; sRGO2, 48 h): 7,5% | AnnexinV staining: late apop (ES cells sRGO2; sRGO2, 48 h): 82% and 82.1% | AnnexinV staining: necrotic (ES cells sRGO2; sRGO2, 48 h): 1,8% | AnnexinV staining: Living cells (EMM cells MelDuWi; 24 h): 77,8% | AnnexinV staining: early apop (EMM cells MelDuWi; 24 h): 6,3% | AnnexinV staining: late apop (EMM cells MelDuWi; 24 h): 15,4% | AnnexinV staining: necrotic (EMM cells MelDuWi; 24 h): 0,6% | AnnexinV staining: Living cells (EMM cells MelDuWi; 48 h): 60,6% | AnnexinV staining: early apop (EMM cells MelDuWi; 48 h): 7,5% | AnnexinV staining: late apop (EMM cells MelDuWi; 48 h): 28.2% | AnnexinV staining: necrotic (EMM cells MelDuWi; 48 h): 3,7% | AnnexinV staining: Living cells [4, 8]: 68,0% | AnnexinV staining: early apop [4, 8]: 8,0% | AnnexinV staining: late apop [4, 8]: 22,4% | AnnexinV staining: necrotic [4, 8]: 1,6% | AnnexinV staining: Living cells [4, 9]: 33,1% | AnnexinV staining: early apop [4, 9]: 9,3% | AnnexinV staining: late apop [4, 9]: 54% and 53.6% | AnnexinV staining: necrotic [4, 9]: 4,1% | increase of early apoptotic cells [4, 10]: 5% | increase of late apoptotic cells [4, 10]: 3% | IC50 ([5]; PriFi2, 5 h): > 100 µM | IC50 ([5]; PriFi2, 24 h): 77 µM | IC50 ([5]; PriFi2, 48 h): 61 µM | IC50 ([5]; PriFi2, 96 h): 20 µM | IC50 (primary ES cells sRGO2; sRGO2, 5 h): > 100 µM | IC50 (primary ES cells sRGO2; sRGO2, 24 h): 45 µM | IC50 (primary ES cells sRGO2; sRGO2, 48 h): 28 µM | IC50 ([6]; 5 h): > 100 µM | IC50 ([6]; 24 h): 60 µM | IC50 ([6]; 48 h): 53 µM | IC50 ([6]; 96 h): 32 µM | IC50 (primary ES cells sRGO1; sRGO1, 5 h): > 100 µM | IC50 (primary ES cells sRGO1; sRGO1, 48 h): 25 µM | IC50 ([7]; PriFi1, 5 h): > 100 µM | IC50 ([7]; PriFi1, 24 h): 59 µM | IC50 ([7]; PriFi1, 48 h): 35 µM | IC50 ([7]; PriFi1, 96 h): 28 µM | IC50 (primary EMM cells eRGO1; eRGO1, 5 h): > 100 µM | IC50 (primary EMM cells eRGO1; eRGO1, 24 h): 47 µM | IC50 (primary EMM cells eRGO1; eRGO1, 48 h): 32 µM | IC50 (primary EMM cells eRGO1; eRGO1, 96 h): 16 µM

From article PMC7643960 (PLoS ONE, 2020)
